Data on 1 substance can be found in patent US10897891B2, “Compositions and methods for prolonged cell storage” (Board of Regents, The University of Texas System, priority 2015, dated 2021).

For test [1], the system named is platelets. The test is described as follows: Epinephrine induced platelet aggregation following cold storage (OD 690 nm, Experiment C). It is filed as cell-based, human. As to conditions: 2% PEG-400, 5° C. for 7 days. The protocol: Platelet aggregation using epinephrine. Ten ml of 24 hr old platelet residual was derived from one platelet unit and split into two 5 ml aliquots in 50 ml tubes. One sample received 10% phosphate buffered saline (PBS) and one 10% PBS containing PEG400 such that the final PEG concentration was 2%. These samples were placed on a flat-bed rotator with a 1 inch stroke, at 70 cycles per min, at 5° C. for 7 days. 100 ul of these platelet suspensions were added to wells of a 96 well U bottom plate. Epinephrine 0.1 mg/ml (Pharmaceutical NDC 0409-4921-34-44-048-DK) was diluted with PBS and 100 ul was added to test wells to give a finial concentration of 10 mcg/ml. The plate was rotated overnight to allow aggregation. The extent of aggregation was read using an ELISA plate reader (Molecular Devises, Vmax) at 690 nm wavelength. Platelets, with and without PEG, were also aggregated by the addition of 10% H2O2. […] Table 3 presents additional cryoprotective agents scored for the effect on microscopic degranulation (20× high contrast lighting as above).
Fresh donor platelets were supplemented with PBS or PBS 2% PEG-400 as described in the methods, and incubated at 5° C. for 7 days. These control and test samples were then loaded side by side on a 96 well plate (ensuring that test and control reading would be made simultaneously). […]

The test system of test [2] is platelets. In words: Platelet degranulation by anti-von Willebrand factor immunofluorescent staining (Experiment D). It is filed as cell-based, human. As to conditions: 1.5% PEG-400, 5° C., 8 days, rotation. The protocol:
Functional, non-degranulated, platelets should retain vWF at high concentrations in their alpha granules. To study the effect of PEG on gradual loss or preservation a direct fluorescent antibody immunoflorescent staining protocol was developed. Slides were air dried for 5 min and immersed in 0.5% fresh paraformaldehyde in 10% PBS pH 7.3 for 10 min. Slides were soaked for 2 min in PBS with 5 changes. Subsequently excess PBS was drained and slides immersed for 2 min in ice cold dry acetone. Again, slides were drained and excess acetone was removed with 5 PBS washings of 2 min each. Slides were then immersed in 0.5% filter sterilized BSA in PBS and allowed to block overnight at 4° C. After draining excess block solution, 50 ul of primary antibody (Polyclonal rabbit anti-vWF-PB9062, Boster Biological Technology, Pleasanton, Calif.) at 5 ng/ml was applied immediately over the platelet spot and incubated in a humidity chamber for 4 hr at 4° C. Slides were washed with 5 changes of 0.5% BSA/PBS for 5 min each. Excess fluid was again removed and FITC labeled goatd anti-rabbit, Sigma F0382, was added 50 ug/ml in 0.5% BSA/PBS for 3 hr. […]
von Willebrand Factor (vWF) is a major component of platelet alpha granules. […] No post photographic image adjustments were made to images analyzed.

Entries after “also recorded” stand apart in the source; their conditions may differ.

In the case of Polyethylene glycol [PEG-400], in test [1], the “initial aggregation in the stored state (baseline OD 690 nm, no epinephrine)” value is on record as “less initial aggregation in the stored state”. Besides, the “aggregation response to epinephrine challenge (OD 690 nm)” value in test [1] (0 vs 10 μg epinephrine) was “significant aggregation response to epinephrine”. Besides, in test [2], the “vWF degranulation at 5° C.” value is given as “sufficient to prevent vWG degranulation; also recorded: prevented vWG degranulation”.
